biological target: human HPK1 (MAP4K1) (Homo sapiens (Human), UniProt Q92918); assay: HPK1 IC50 Assay; format: biochemical; conditions: recombinant HPK1 kinase domain 0.15 nM, synthetic peptide substrate STK S1, 3 hours at 25° C., time-resolved fluorescence energy transfer; geometric mean of multiple experiments
Protocol: The enzymatic activity of human HPK1 (MAP4K1) was monitored in a biochemical assay in the presence or absence of compounds and using a synthetic peptide substrate. An increase in phosphorylation of the peptide by HPK1 was indicative of its kinase activity.
Recombinant HPK1 kinase domain produced via baculovirus infection of insect cells was obtained from Proteros (Proteros Biostructures #PR-0322) and was pre-activated in the presence of 2 mM ATP (Sigma-Aldrich, cat #GE27-2056-01) and 2 mM magnesium chloride for 16 hours at 4° C. The protein reaction mixture was then loaded to a desalting column (Thermo Fisher Scientific, Cat #89889) to remove excess ATP. HPK1 was eluted with buffer containing 20 mM Tris (2-Amino-2-(hydroxymethyl)propane-1,3-diol) pH 8.0, 150 mM NaCl, 2 mM dithiothreitol and 5% glycerol, and was frozen at −80° C. for later use. HPK1 dual phosphorylation was confirmed by mass spectrometry.
Ten nanoliters of test compounds dissolved in DMSO at various concentrations were dispensed into a 384-well ProxiPlate (PerkinElmer #6008289). Five microliters of a solution of recombinant HPK1 diluted in HPK1 kinase assay buffer (50 mM BES [N,N-Bis(2-hydroxyethyl)-2-aminoethanesulfonic acid], pH 7.0; 10 mM magnesium chloride; 0.01% Triton X-100; 1 mM dithiothreitol; 0.01% bovine serum albumin; 0.1 mM sodium orthovanadate) was added to the compound-containing plate and was incubated for 15 minutes at 25° C. Five microliters of a mixture of ATP (Sigma-Aldrich #A6559) and peptide substrate STK Si (Cisbio #61ST1BLC) diluted in HPK1 kinase assay buffer was then added to start the reaction. Final concentrations were 0.15 nM for HPK1, […], and 1 […]. The reaction mixture was incubated at 25° C. for 3 hours and was stopped with the addition of 10 μl of an EDTA (Ethylenediaminetetraacetic acid)-containing detection buffer (Cisbio #62SDBRDF) supplemented with Europium cryptate-labeled anti-phospho-serine/threonine antibodies (Cisbio #62ST1PEJ) and XL665-labeled streptavidin (Cisbio #610SAXLG). The mixture was incubated for 16 hours at room temperature and peptide phosphorylation was measured by time-resolved fluorescence energy transfer (665 nm/620 nm) on an Envision plate reader (PerkinElmer).
Data in Table 1 were normalized based on positive (staurosporine) and negative (DMSO) controls. Least squares curve fittings were performed using a four-parameter variable slope nonlinear regression model. IC50 is defined as the concentration of compound required to inhibit 50% of maximum phosphorylation. IC50 values from multiple experiments were averaged by geometric mean and the standard deviation was calculated.

human HPK1 (MAP4K1), sequence (Q92918 17-274): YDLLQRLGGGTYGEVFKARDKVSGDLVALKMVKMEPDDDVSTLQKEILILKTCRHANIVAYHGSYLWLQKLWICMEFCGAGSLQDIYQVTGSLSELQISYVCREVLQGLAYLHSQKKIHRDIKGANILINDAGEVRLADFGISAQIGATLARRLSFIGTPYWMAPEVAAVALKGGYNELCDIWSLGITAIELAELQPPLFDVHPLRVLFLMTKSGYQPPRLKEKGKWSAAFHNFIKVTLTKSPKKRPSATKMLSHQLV

| Structure (SMILES) | IC50 [pM] |
| --- | --- |
| Cc1c(-c2cnc3c(c2)NCCO3)cc(F)c2c1/C(=C/c1cc3cnccc3[nH]1)C(=O)N2 [Compound C42, (Z)-3-((1H-pyrrolo[3,2-c]pyridin-2-yl)methylene)-5-(2,3-dihydro-1H-pyrido[2,3-b][1,4]oxazin-7-yl)-7-fluoro-4-methylindolin-2-one] | 9300 |
| Cc1ncc(/C=C2\C(=O)Nc3ccc(-c4ccc5c(c4C)NCCO5)cc32)[nH]1 [Compound C2, (Z)-3-((2-methyl-1H-imidazol-5-yl)methylene)-5-(5-methyl-3,4-dihydro-2H-benzo[b][1,4]oxazin-6-yl)indolin-2-one] | 1950 |
| C/C(=C1/C(=O)Nc2ccc(-c3cnc4c(c3C)NCCO4)cc21)c1cnc[nH]1 [Compound C11, (Z)-3-(1-(1H-imidazol-5-yl)ethylidene)-5-(8-methyl-2,3-dihydro-1H-pyrido[2,3-b][1,4]oxazin-7-yl)indolin-2-one] | 440 |
| Cc1c(-c2ccc3c(c2)/C(=C/c2ncc[nH]2)C(=O)N3)cnc2c1NCCO2 [Compound C31, (Z)-3-((1H-imidazol-2-yl)methylene)-5-(8-methyl-2,3-dihydro-1H-pyrido[2,3-b][1,4]oxazin-7-yl)indolin-2-one] | 770 |
| Cc1c(-c2cnc3c(c2)/C(=C/c2cc4ccccc4[nH]2)C(=O)N3)cnc2c1NCCO2 [Compound C55, (Z)-3-((1H-indol-2-yl)methylene)-5-(8-methyl-2,3-dihydro-1H-pyrido[2,3-b][1,4]oxazin-7-yl)-1,3-dihydro-2H-pyrrolo[2,3-b]pyridin-2-one] | 1240 |
| Cc1c(-c2cc(Cl)c3c(c2)/C(=C/c2ccc[nH]2)C(=O)N3)cnc2c1NCCO2 [Compound C23, (Z)-3-((1H-pyrrol-2-yl)methylene)-7-chloro-5-(8-methyl-2,3-dihydro-1H-pyrido[2,3-b][1,4]oxazin-7-yl)indolin-2-one] | 1980 |
| Cc1cc2c(cc1-c1cnc3c(c1)NCCO3)/C(=C/c1cc3cnccc3[nH]1)C(=O)N2 [Compound C41, (Z)-3-((1H-pyrrolo[3,2-c]pyridin-2-yl)methylene)-5-(2,3-dihydro-1H-pyrido[2,3-b][1,4]oxazin-7-yl)-6-methylindolin-2-one] | 5730 |

The next compounds have a lower IC50 than those just listed; values first:

| IC50 [pM] | Structure (SMILES) |
| --- | --- |
| 170 | Cc1c(-c2cc(F)c3c(c2)/C(=C/c2cc4ccncc4[nH]2)C(=O)N3)cnc2c1NCCO2 [Compound C45, (Z)-3-((1H-pyrrolo[2,3-c]pyridin-2-yl)methylene)-7-fluoro-5-(8-methyl-2,3-dihydro-1H-pyrido[2,3-b][1,4]oxazin-7-yl)indolin-2-one] |
| 130 | Cc1c(-c2ccc3c(c2)/C(=C/c2cnc(C4CC4)[nH]2)C(=O)N3)cnc2c1NCCO2 [Compound C34, (Z)-3-((2-cyclopropyl-1H-imidazol-5-yl)methylene)-5-(8-methyl-2,3-dihydro-1H-pyrido[2,3-b][1,4]oxazin-7-yl)indolin-2-one] |
| 70 | Cc1ncc(/C=C2\C(=O)Nc3ccc(-c4cnc5c(c4C)NCCO5)cc32)[nH]1 [Compound C15, (Z)-3-((2-methyl-H-imidazol-5-yl)methylene)-5-(8-methyl-2,3-dihydro-1H-pyrido[2,3-b][1,4]oxazin-7-yl)indolin-2-one] |
| 50 | Cc1c[nH]c(/C=C2\C(=O)Nc3c(F)cc(-c4cnc5c(c4C)NCCO5)cc32)c1 [Compound C25, (Z)-7-fluoro-3-((4-methyl-1H-pyrrol-2-yl)methylene)-5-(8-methyl-2,3-dihydro-1H-pyrido[2,3-b][1,4]oxazin-7-yl)indolin-2-one] |
| 70 | Cc1cc2c(cc1-c1cnc3c(c1C)NCCO3)/C(=C/c1cc3cnccc3[nH]1)C(=O)N2 [Compound C40, (Z)-3-((1H-pyrrolo[3,2-c]pyridin-2-yl)methylene)-6-methyl-5-(8-methyl-2,3-dihydro-1H-pyrido[2,3-b][1,4]oxazin-7-yl)indolin-2-one] |
| 320 | Cc1n[nH]cc1/C=C1\C(=O)Nc2ccc(-c3cnc4c(c3C)NCCO4)cc21 [Compound C68, (Z)-3-((3-methyl-H-pyrazol-4-yl)methylene)-5-(8-methyl-2,3-dihydro-1H-pyrido[2,3-b][1,4]oxazin-7-yl)indolin-2-one] |

Reference: patent US11453681B2, “Substituted eneoxindoles and uses thereof” (Gilead Sciences, Inc., priority 2019, dated 2022)
